Test results as given in patent US6797807B1, “Compounds and methods for cancer therapy” (Adherex Technologies, Inc., priority 1997, dated 2004).

Tests used:
[1] = tested on: Madin Darby canine kidney (MDCK) cells; assay: Electrical resistance across MDCK cell monolayers; type: cell-based; conditions: 24 hours; for mean electrical resistance across MDCK cell monolayers: 0.5 mg/ml peptide, relative to the control (medium alone), FIG. 9; for formation of tight junctions in epithelial cells: conclusion from MDCK electrical resistance, 0.5 mg/ml
Procedure: Yet another assay evaluates the effect of an occludin modulating agent on the electrical resistance across a monolayer of cells. For example, Madin Darby canine kidney (MDCK) cells can be exposed to the modulating agent dissolved in medium (e.g., at a final concentration of 0.5 mg/ml for a period of 24 hours). The effect on electrical resistance can be measured using standard techniques. This assay evaluates the effect of a modulating agent on tight junction formation in epithelial cells. In general, the presence of 500 μg/mL modulating agent should result in a statistically significant increase or decrease in electrical resistance after 24 hours.
Madin Darby canine kidney (MDCK) cells were plated in Millicells (Millipore, Bedford, Mass.), at a density of 300,000 cells per Millicell, and cultured in Dulbecco's Modified Eagle Medium (DMEM; Sigma, St. Louis, Mo.) containing 5% fetal calf serum (Sigma, St. Louis, Mo.). Monolayers were exposed to the modulating agent dissolved in medium at a final concentration of 0.5 mg/ml for a period of 24 hours. The electrical resistance was measured using the EVOM device (World Precision Instruments, Sarasota, Fla.). At the time of measurement, fresh medium, with or without the modulating agent, may be added to the Millicells.

[2] = tested on: Human aortic endothelial cells (HAEC); assay: Endothelial cell adhesion assay: occludin and VE-cadherin immunolocalization in HAEC monolayers; type: cell-based; conditions: 1 hour
Description: The effect of a modulating agent on endothelial cell adhesion may generally be evaluated using immunolocalization techniques. Human aortic endothelial cells (HAEC) may be cultured on fibronectin-coated coverslips (fibronectin may be obtained from Sigma, St. Louis, Mo.) according to the procedures of Jaffe et al., J. Clin. Invest. 52:2745-2756, 1973. Briefly, human endothelial cells may be maintained in EGM (endothelial cell growth medium; Clonetics, San Diego, Calif.) and used for experiments at passage 4. Confluent cultures of HAEC may be exposed to either a candidate modulating agent (final concentration 100 μg/ml EGM), or EGM alone for 1 hour. The cells are then be fixed for 30 minutes at 4° C. in 95% ethanol, followed by fixation in acetone for 1 minute at 4° C. (Furuse et al., J. Cell Biol. 123:1777-1788, 1993). After fixation, the cells may be probed with either mouse anti-VE-cadherin antibodies (Hemeris, Sassenage, France; diluted 1:250 in 0.1% dried skim milk powder dissolved in PBS), or rabbit anti-occludin antibodies (Zymed, South San Francisco, Calif.; diluted 1:300 in 0.1% dried skim milk powder dissolved in PBS) for 1 hour at 37° C. The cells may then be washed with 0.1% dried skim milk powder dissolved in PBS (three washes, 5 minutes/wash), and probed with secondary antibodies (donkey anti-mouse Cy3, or donkey anti-rabbit Cy5 diluted 1:250 in 0.1% dried skim milk powder dissolved in PBS; Jackson Immunoresearch Laboratories Inc., Westgrove, Pa.) for 1 hour at 37° C. The cells may then be washed again with in 0.1% dried skim milk powder dissolved in PBS and mounted in a solution composed of 50% glycerol and 50% PBS to which phenylenediamine (Sigma, St. Louis, Mo.) has been added to a final concentration of 1 mg/ml. The sample may then be analyzed using a Bio-Rad MRC 1000 confocal microscope with Laser Sharp software version 2.1T (Bio-Rad, Hercules, Calif.). In general, 0.1 mg/ml of modulating agent results in the appearance of intercellular gaps within the monolayer cultures and a decrease of at least 50% in the surface expression of occludin and VE-cadherin, as compared to monolayer cultures that were not exposed to the modulating agent.
Human aortic endothelial cells (HAEC) were cultured on fibronectin (Sigma, St. Louis, Mo.) according to the procedures of Jaffe et al., J. Clin. Invest. 52:2745-2756, 1973. Cells were maintained in EGM (endothelial cell growth medium; Clonetics, San Diego, Calif.) and used for experiments at passage 4.
HAEC were cultured on fibronectin-coated coverslips. Confluent cultures of HAEC were exposed to linear peptides (final concentration 100 μg/ml EGM), or EGM alone for 1 hour. […] The samples were analyzed using a Bio-Rad MRC 1000 confocal microscope with Laser Sharp software version 2.1T (Bio-Rad, Hercules, Calif.). […]

Adult rats = assay: Miles assay for vascular permeability (Evans blue); type: in vivo; conditions: rat
Procedure: The ability of an agent to modulate cell adhesion may generally be evaluated in vivo by assessing the effect on vascular permeability utilizing the Miles assay (McClure et al., J. Pharmacological & Toxicological Methods 32:49-52, 1994). Briefly, a candidate modulating agent may be dissolved in phosphate buffered saline (PBS) at a concentration of 100 μg/ml. Adult rats may be given 100 μl subdermal injections of each peptide solution into their shaved backs, followed 15 minutes later by a single 250 μl injection of 1% Evans blue dissolved in PBS into their tail veins. The subdermal injection sites may be visually monitored for the appearance of blue dye. Once the dye appears (about 15 minutes after injection), each subdermal injection site may be excised, weighed, and placed in 1 ml dimethylformamide for 24 hours to extract the dye. The optical density of the dye extracts may then be determined at 620 nm. In general, the injection of 0.1 ml of modulating agent (at a concentration of 0.1 mg/ml) into the backs of rats causes an increase of dye accumulation at the injection sites of at least 50%, as compared to dye accumulation at sites into which PBS has been injected.
The ability of cyclic and linear peptides to increase vascular permeability was assessed utilizing the Miles assay (McClure et al., J. Pharmacological & Toxicological Meth. 32:49-521994). The peptides were dissolved in phosphate buffered saline (PBS) at a concentration of 100 μg/ml. Adult rats were given 100 μl subdermal injections of each peptide solution into their shaved backs, followed 15 minutes later by a single 250 μl injection of 1% Evans blue dissolved in PBS into their tail veins. The subdermal injection sites were visually monitored for the appearance of blue dye. Once the dye appeared (15 minutes after injection), each subdermal injection site was excised, weighed, and placed in 1 ml dimethylformamide for 24 hours to extract the dye. The optical density of the dye extracts was determined at 620 nm. […]

[3] = 100 μg/ml peptide, compared to untreated cells

Row | Substance | mean electrical resistance across MDCK cell monolayers [1] | formation of tight junctions in epithelial cells [1] | formation of tight junctions in epithelial cells ([1]; listed as N-Ac-CLYHYC-NH2) | formation of tight junctions in epithelial cells ([1]; listed as H-QYLYHYCVVD-COOH) | adhesion between endothelial cells (retraction of cells from one another) ([2]; 100 μg/ml peptide in EGM, vs untreated, FIG. 4B) | formation of cobblestone-like monolayers ([2]; 100 μg/ml peptide) | surface expression of VE-cadherin [2, 3] | surface expression of occludin [2, 3] | optical densities of dimethylformamide dye extracts from excised injection sites (Adult rats; 100 μg/ml peptide subdermal, OD at 620 nm, compared with PBS and the N-acetyl/C-amide peptides, FIG. 6, FIG. 8) | accumulation of Evans blue at the injection sites (visual) (Adult rats; 100 μl subdermal injection of 100 μg/ml peptide in PBS, Evans blue i.v. 15 min later, compared with PBS, acetyl-QYLYHYCVVD-NH2 and H-QYLYHYCVVD-NH2 sites, FIG. 5)
1 | H-QYLYHYCVVD-NH2 [Peptide 2] | reduce the electrical resistance | – | – | – | – | – | – | – | – | –
2 | acetyl-CLYHYC-NH2 (Ac-CLYHYC-NH2; also: cyclic, kind not given here) [Peptide 4] | increased the electrical resistance | stimulate the formation of tight junctions in epithelial cells | stimulating the formation of tight junctions in epithelial cells | – | – | – | – | – | – | –
3 | H-QYLYHYCVVD-OH [Peptide 3] | increased the electrical resistance | stimulate the formation of tight junctions in epithelial cells | – | stimulating the formation of tight junctions in epithelial cells | adhesion is decreased | do not form cobblestone-like monolayers | greatly reduced | greatly reduced | more dye was extracted | more blue dye has accumulated
